Measured values from ChEMBL document CHEMBL1201862, “PubChem BioAssay data set” (2004).
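These data come from cells grown in 96-well plates and exposed to compound for 48 hours at five concentrations. Here, GI50 denotes the concentration required for 50% inhibition of growth.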 Calls of active or inactive are those of the source. Cut-off read from the data, not from the text of the source: active = GI50 up to about 1.1 µM and inactive = higher.

Columns and labels:
Assay in all cases: NCI tumour cell line growth inhibition, 48 h
Hs-578T = system: Hs-578T
MDA-MB-435 = system: MDA-MB-435
T47D = system: T47D
MDA-MB-231 = system: MDA-MB-231
PC-3 = system: PC-3
MDA-N = system: MDA-N
RXF 631 = system: RXF 631

Measured: GI50

CCOC(=O)C(NC(=O)CC)(Nc1ccccc1OC)C(F)(F)F (configuration not stated)
inactive: Hs-578T > 100 µM | MDA-MB-435 > 100 µM | T47D > 100 µM | MDA-MB-231 > 100 µM | PC-3 > 100 µM | MDA-N > 100 µM

CCOC(=O)c1csc(NC(=O)CCN(CC)CC)n1
inactive: MDA-MB-435 38.3 µM | T47D 54.7 µM | MDA-MB-231 50.5 µM | PC-3 41 µM | MDA-N 45.5 µM

COc1ccc(OC)c(NC(=O)C(=O)C(C(=O)c2ccccc2F)C2OC(=O)c3ccccc32)c1 (configuration not stated)
inactive: RXF 631 34.7 µM
